This is an account of results in ChEMBL document CHEMBL1130192, “Synthesis and antiviral activity of C2 analogs of enviroxime: an exploration of the role of critical functionality” (J Med Chem, 1997).

≈ marks a conversion by molar mass, not a printed value.

One may read the IC50 as the concentration that inhibits the measured activity by half. A high value points to a need for much substance.

Assay [1] has as its system HeLa. In words: Antiviral activity against Poliovirus (PV-1) in HeLa cells using CPE/XTT assay. In kind it is functional, cell-based. Conditions: Homo sapiens. A general note: Formazan colour is commonly taken as a measure of viable cells.
For assay [2], the system named is HeLa. Briefly: Antiviral activity against Rhinovirus (RV-14) in HeLa cells using CPE/XTT assay. To be noted: Homo sapiens. It counts as functional, cell-based.
In assay [3] the test system is HeLa. Briefly: Antiviral activity against Rhinovirus (RV-16) in HeLa cells using CPE/XTT assay. It counts as functional, cell-based. To be noted: Homo sapiens.
For assay [4], the system named is HeLa. Briefly: Antiviral activity against Rhinovirus (RV-2) in HeLa cells using CPE/XTT assay. It counts as functional, cell-based. Conditions: Homo sapiens.
Assay [5] deals with HeLa. In words: Antiviral activity against Coxsackievirus (CoxA21) in HeLa cells using CPE/XTT assay. It counts as functional, cell-based. Conditions: Homo sapiens.
In assay [6] the test system is BSC-1. In words: Antiviral activity against Poliovirus (PV-1) using plaque reduction assay using BSC1 cells. In kind it is functional, cell-based, Cercopithecidae. Conditions: Chlorocebus aethiops. (Plaque reduction counts the foci of infection that form in a cell layer.)
Assay [7] relates to HeLa. In words: Antiviral activity against Coxsackie virus (CoxA21) in HeLa cells using CPE/XTT assay. In kind it is functional, cell-based. To be noted: Homo sapiens.
Assay [8] relates to BSC-1. In words: Antiviral activity against Poliovirus (PV-1) using plaque reduction assay in BSC1 cells. It counts as functional, cell-based, Cercopithecidae. Conditions: Chlorocebus aethiops.
Assay [9] relates to HeLa. In words: Antiviral activity against Rhinovirus (RV-2) in HeLa cells using CPE/XTT assay in HeLa cells using CPE/XTT assay. In kind it is functional, cell-based. To be noted: Homo sapiens.

With `Cc1nc2ccc(/C(=N/O)c3ccccc3)cc2n1S(=O)(=O)C(C)C`, the IC50 with HeLa [1] was found to be 0.23 µg/mL (≈ 0.643 µM); in the assay with HeLa [2], 0.34 µg/mL (≈ 0.951 µM); in the assay with HeLa [3] it was 0.18 µg/mL (≈ 0.504 µM); in the assay on HeLa [4], 0.24 µg/mL (≈ 0.671 µM); in the assay on HeLa [5], 0.05 µg/mL (≈ 0.14 µM).
Turning to `CC(C)S(=O)(=O)n1c(N)nc2ccc(/C(=N/O)c3ccccc3)cc21` [ENVIROXIME], the IC50 worked out at 0.02 µg/mL (≈ 0.0558 µM) in the assay on BSC-1 [6]; 0.06 µg/mL (≈ 0.167 µM) in the assay with HeLa [1]; 0.04 µg/mL (≈ 0.112 µM) with HeLa [2]; 0.04 µg/mL (≈ 0.112 µM) in the assay on HeLa [3]; 0.07 µg/mL (≈ 0.195 µM) in the assay on HeLa [4]; 0.05 µg/mL (≈ 0.139 µM) in the assay on HeLa [7].
In the case of `COc1nc2ccc(/C(=N/O)c3ccccc3)cc2n1S(=O)(=O)C(C)C`, the 50% inhibitory concentration (IC50) turned out to be 0.57 µg/mL (≈ 1.53 µM) with HeLa [1]; 0.48 µg/mL (≈ 1.29 µM) in the assay with HeLa [2]; 0.18 µg/mL (≈ 0.482 µM) in the assay on HeLa [3]; 0.54 µg/mL (≈ 1.45 µM) with HeLa [4]; 0.17 µg/mL (≈ 0.455 µM) with HeLa [5].
Turning to `CSc1nc2ccc(/C(=N/O)c3ccccc3)cc2n1S(=O)(=O)C(C)C`, the IC50 turned out to be 0.59 µg/mL (≈ 1.51 µM) in the assay on HeLa [1]; 0.76 µg/mL (≈ 1.95 µM) in the assay with HeLa [2]; 0.18 µg/mL (≈ 0.462 µM) with HeLa [3]; 0.69 µg/mL (≈ 1.77 µM) with HeLa [4]; 0.18 µg/mL (≈ 0.462 µM) in the assay on HeLa [5].
Regarding `CC(C)n1c(N)nc2ccc(/C(=N/O)c3ccccc3)cc21`, 0.09 µg/mL (≈ 0.306 µM) corresponded to half-maximal inhibition in the assay on BSC-1 [8] (IC50).
For the molecule `CC(C)S(=O)(=O)n1c(N(C)C)nc2ccc(/C(=N/O)c3ccccc3)cc21`, the IC50 in the assay on HeLa [1] is 4.55 µg/mL (≈ 11.8 µM); in the assay with HeLa [2] it was 49 µg/mL (≈ 127 µM); in the assay with HeLa [3], 0.64 µg/mL (≈ 1.66 µM); in the assay with HeLa [4], 30.3 µg/mL (≈ 78.4 µM); in the assay with HeLa [5], 2.19 µg/mL (≈ 5.67 µM).
On to `CC(C)S(=O)(=O)n1cnc2ccc(/C(=N/O)c3ccccc3)cc21`, for which the IC50 with HeLa [1] is 0.57 µg/mL (≈ 1.66 µM); in the assay on HeLa [2], 0.53 µg/mL (≈ 1.54 µM); in the assay on HeLa [3] it was 0.16 µg/mL (≈ 0.466 µM); in the assay on HeLa [5], 0.12 µg/mL (≈ 0.349 µM); with HeLa [9] it was 0.19 µg/mL (≈ 0.553 µM).
As for `CNc1nc2ccc(/C(=N/O)c3ccccc3)cc2n1S(=O)(=O)C(C)C`, the IC50 in the assay on HeLa [1] came out at 6.16 µg/mL (≈ 16.5 µM); in the assay with HeLa [2], 24.4 µg/mL (≈ 65.5 µM); in the assay on HeLa [3] it was 1.49 µg/mL (≈ 4 µM); with HeLa [4], 54.8 µg/mL (≈ 147 µM); in the assay with HeLa [5] it was 7.11 µg/mL (≈ 19.1 µM).
